Data reported in US8859599B2, “Androgen receptor modulating compounds, preparation and uses thereof” (priority 2009, dated 2014).
Read-outs that look alike come from different tables or passages of the source.

How the values were obtained:
LNCaP cells [1] = assay: Sulforhodamine B (SRB) in vitro chemosensitivity assay on LNCaP cells; format: cell-based; details: for LC50: read-out: cytocidal effects by 50% (LC50), LNCaP cells, 144 h exposure; for LC50 / cytocidal effects by 50% (LC50): n.r. = not reached
Procedure: (§1) Sulforhodamine B (SRB) assay was used according to the method by Skehan et al. (JNCI, 1990). Briefly, cells were collected by trypsinization, counted and plated at a density of 5,000 cells/well in 96-well flat-bottomed microtiter plates (100 μl of cell suspension/well). In the chemosensitivity assay, experiments were run in octuplicate, and each experiment was repeated three times. The optical density (OD) of cells was determined at a wavelength of 490 nm by a colorimetric plate reader.
(§2) Growth inhibition and cytocidal effect of drugs were calculated according to the formula reported by Monks et al. (JNCI, 1991): [(ODtreated−ODzero)/(ODcontrol−ODzero)]×100%, when ODtreated is > to ODzero. If ODtreated is above ODzero, treatment has induced a cytostatic effect, whereas if ODtreated is below ODzero, cell killing has occurred. The ODzero depicts the cell number at the moment of drug addition, the ODcontrol reflects the cell number in untreated wells and the ODtreated reflects the cell number in treated wells on the day of the assay. TUNEL Assay
The authors examined the antitumour activity of the compounds for which the synthesis is described above, in the hormone-sensitive prostate cancer cell line LNCaP. (R)-Bicalutamide and the novel compounds were tested at the increasing concentrations of […]. The highest dose used was chosen on the basis of the clinically achievable peak plasma concentration reported in the literature for bicalutamide (Cockshott I D. Clin Pharmacokinet. 2004; 43 (13) 855-78).
After 144-hr exposure time, the cytotoxic effect of the molecules was calculated according to the method of Monks et al. (Monks A, et al., J. Nat. Cancer Inst. 1991; 83: 757-66).

PC-3 = assay: SRB cytotoxicity on PC-3 cells; format: cell-based, human; details: PC-3 cells (no AR), 144 h exposure
Procedure: (§3) Finally, compounds were also tested on HepG2 cells, originally isolated from a primary hepatoblastoma of a child, purchased from ATCC.
as §1, §2
(§4) The authors tested the antitumour activity of the compounds also on PC-3 and DU145 cancer cell lines, representative of hormone-refractory prostate cancer due to AR receptor absence.

DU145 = assay: SRB cytotoxicity on DU145 cells; format: cell-based, human; details: DU145 cells (no AR), 144 h exposure
Procedure: as §3, §1, §2, §4

LNCaP cells [2] = assay: TUNEL assay of apoptotic cells in LNCaP; format: cell-based, human; details: 144-h exposure, 20.0 μM
Procedure: Cells were fixed in 1% paraformaldehyde in PBS on ice for 15 min, suspended in ice cold ethanol (70%) and stored overnight at −20° C. Cells were then washed twice in PBS and resuspended in PBS containing 0.1% Triton X-100 for 5 min at 4° C. Thereafter, samples were incubated in 50 μl of solution containing TdT and FITC-conjugated dUTP deoxynucleotides 1:1 (Roche Diagnostic GmbH, Mannheim, Germany) in a humidified atmosphere for 90 min at 37° C. in the dark, washed in PBS, counterstained with propidium iodide (2.5 μg/ml, MP Biomedicals, Verona, Italy) and RNAse (10 Kunits/ml, Sigma Aldrich, Milan, Italy) for 30 min at 4° C. in the dark and analyzed by flow cytometry.
After the end of drug exposures, medium was removed and cells were detached from the flasks by trypsin treatment, washed twice with PBS and stained according to the different methods specified below. Flow cytometric analysis was performed using a FACS Canto flow cytometer (Becton Dickinson, San Diego, Calif.). Data acquisition and analysis were performed using FACSDiva software (Becton Dickinson). Samples were run in triplicate and 10,000 events were collected for each replica. Data were the average of three experiments, with errors under 5%.
The cells, before TUNEL assay, were continuously exposed to the anti-androgen compounds for 144 hours at the concentration of 20.0 μM.

LNCaP-AR cells = assay: TUNEL assay of apoptotic cells in LNCaP-AR; format: cell-based, human; details: LNCaP-AR, 144-h exposure, 20.0 μM, TUNEL
[3] = system: normal stem cells derived from human peripheral blood stem cells; assay: Colony-forming cell assay (GM-CFU); format: cell-based; details: highest concentration tested, 14 days incubation
Procedure: The colony-forming cell assay was used as previously described [Motta M R et al., Exp Hematol 1997; 25:1261-1269]. In brief, for each molecule, 5×10^4 cells were plated in duplicate in a complete culture medium (MethoCult H4434, StemCell Technologies, Vancouver, Canada) containing different concentrations (0.2, 2, and 20 μmol/l) of the compound. After 14 days of incubation in a humidified atmosphere of 5% CO2 at the temperature of 37° C., granulocyte macrophage colony-forming unit (GM-CFU) aggregates of more than 50 cells were counted. Control cells were incubated under the same conditions but in drug-free medium.
The authors also evaluated the potential toxicity of some of the novel compounds in normal cells as the ability of the drugs to inhibit clonogenic growth of normal stem cells derived from human peripheral blood stem cells (FIG. 37). The exposure of hematopoietic precursor to the compounds, caused low ((S)-37) or negligible (, (R)-22, (R)-23, (R)-10) toxicity at the highest concentration tested.

[4] = target: T1, human androgen receptor (hAR) (Homo sapiens, UniProt P10275); assay: hAR transactivation assay (ARE-luciferase reporter) in Cos-7 cells; format: cell-based
T1 construct: The cDNA coding hAR was cloned into the pSG5 expression vector as reported previously; expressed in transfected cells; host or cells: Cos-7 cells transiently transfected with pSG5-hAR
T1 sequence (P10275 1-920): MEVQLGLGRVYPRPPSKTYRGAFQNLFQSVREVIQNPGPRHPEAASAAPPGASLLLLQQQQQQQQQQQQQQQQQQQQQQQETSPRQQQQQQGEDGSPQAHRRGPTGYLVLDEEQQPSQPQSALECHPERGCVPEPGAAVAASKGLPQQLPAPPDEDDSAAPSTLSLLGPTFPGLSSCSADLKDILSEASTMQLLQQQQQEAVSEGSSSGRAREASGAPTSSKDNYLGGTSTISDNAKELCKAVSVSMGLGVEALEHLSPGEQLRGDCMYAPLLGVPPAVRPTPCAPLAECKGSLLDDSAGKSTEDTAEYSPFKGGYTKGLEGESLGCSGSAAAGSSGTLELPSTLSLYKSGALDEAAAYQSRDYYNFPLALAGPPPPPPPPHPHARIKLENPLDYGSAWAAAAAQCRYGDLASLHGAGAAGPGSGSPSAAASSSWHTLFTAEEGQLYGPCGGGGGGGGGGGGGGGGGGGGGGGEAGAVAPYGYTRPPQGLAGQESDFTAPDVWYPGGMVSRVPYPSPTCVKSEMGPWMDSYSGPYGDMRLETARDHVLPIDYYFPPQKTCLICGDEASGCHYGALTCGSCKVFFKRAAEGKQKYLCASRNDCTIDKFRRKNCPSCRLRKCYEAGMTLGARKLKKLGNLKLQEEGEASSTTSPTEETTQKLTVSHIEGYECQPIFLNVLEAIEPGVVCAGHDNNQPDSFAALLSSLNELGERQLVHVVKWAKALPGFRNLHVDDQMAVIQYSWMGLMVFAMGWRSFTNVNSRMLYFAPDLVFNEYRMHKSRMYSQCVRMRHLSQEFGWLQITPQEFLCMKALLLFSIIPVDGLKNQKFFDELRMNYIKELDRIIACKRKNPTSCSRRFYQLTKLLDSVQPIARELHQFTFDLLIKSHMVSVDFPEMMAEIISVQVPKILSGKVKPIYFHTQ
Procedure: The cDNA coding hAR was cloned into the pSG5 expression vector as reported previously [Chang, C. S., et al., Science (1988)240:324-326]. The 3416 construct (ARE-Luc), containing four copies of the wild-type slp-HRE2 (5′-TGGTCAgccAGTTCT-3′) (SEQ ID No. 1) was cloned in the NheI site in pTK-TATA-Luc [Verrijdt, G. et al., J. Biol. Chem. (2000)275:12298-12305].
For androgen-stimulated transcriptional analysis, 32×10^4 Cos-7 cells were plated in phenol red-free DMEM containing 5% charcoal-stripped serum. After 48 h, the cells were transfected by Superfect (Qiagen) with 0.3 μg of 3416-pTK-TATA-Luc construct, together with 1.5 μg of either pSG5-empty plasmid or pSG5-hAR expressing plasmid. After 18 h, transfected cells were stimulated for 24 h with 10 nM of the synthetic androgen, R1881 (from Perkin-Elmer; dissolved in 0.001% ethanol, final concentration), in the absence or presence of the indicated concentrations of synthetic compounds. When indicated, the synthetic compounds were added alone to the cell medium. […] It was dissolved in 0.001% (final concentration) ethanol. Control cells were treated with the vehicle alone. Lysates were prepared and the luciferase activity was measured using a luciferase assay system (Promega). The results were corrected using CH110-expressed beta-galactosidase activity (Amersham Biosciences) and luciferase activity was expressed as fold induction. Results were obtained from two or three different experiments, each performed in duplicate. Mean and SEM are shown.

HepG2 cells = assay: Cytotoxic activity on hepatoblastoma cell line HepG2; format: cell-based, human; details: up to highest concentration tested
Procedure: as §3, §1, §2
The authors evaluated in vitro the potential hepato-toxicity of some of the novel compounds on HepG2 cell line, a human hepatoblastoma cell line that retains the specialized function of normal hepatocytes [Knowles B B, et al., Science 1980, 209:497-499; Aden D P, et al., Nature, 1979, 282:615-616].

[5] = Homo sapiens, LNCaP, 144 h, read-out: Growth inhibition (GI50), LNCaP cells, 144 h exposure

SMILES | LC50 (LNCaP cells [1]; Homo sapiens, LNCaP, 144 h) [µM] | cytocidal (cell killing) activity (LNCaP cells [1]; LNCaP cells, 144 h exposure) | GI50 (LNCaP cells [1]; read-out: Growth inhibition (GI50), LNCaP cells, 144 h exposure) [µM] | cytotoxic properties compared to effects on LNCaP and LNCaP-AR cells (PC-3) | cytotoxic properties compared to effects on LNCaP and LNCaP-AR cells (DU145) | Apoptotic cells (%) (LNCaP cells [2]) | Apoptotic cells (%) (LNCaP-AR cells) | GI50 (LNCaP cells [1]; [5]) [µM] | cytostatic effect: suppression of cell growth (LNCaP cells [1]; LNCaP cells, 144 h, highest concentration tested) | toxicity: inhibition of clonogenic growth of hematopoietic precursors [3] | inhibition of androgen-induced transcriptional activation (antagonistic activity) ([4]; cells challenged with 10 nM R1881, compound at 10 μM) | agonistic activity, compound alone ([4]; range between 100 nM-10 μM) | potential hepato-toxicity (HepG2 cells) | cytocidal effects by 50% (LC50) (LNCaP cells [1]; LNCaP cells, 144 h exposure) | GI50 (LNCaP cells [1]; Homo sapiens, LNCaP cells, 144 h exposure, read-out: Growth inhibition (GI50)) [µM]
N#Cc1ccc(NC(=O)[C@@](N)(CS(=O)(=O)c2ccc(F)cc2)c2ccccc2)cc1C(F)(F)F [(R)-9] | 15 | cytocidal activity | 1.6 | significant reduction in their cytotoxic proprieties | significant reduction in their cytotoxic proprieties | 93.5 | 83.5 |  |  |  |  |  |  |  | 
CC(C)(C)S(=O)(=O)N[C@@](C)(CS(=O)(=O)c1ccc(F)cc1)C(=O)Nc1ccc(C#N)c(C(F)(F)F)c1 [(R)-22, (R)—N-(4-cyano-3-(trifluoromethyl)phenyl)-2-(1,1-dimethylethylsulfonamido)-3-(4-fluorophenylsulfonyl)-2-methylpropanamide] | 20 |  |  |  |  |  |  | 5.8 | suppress completely the cell growth | negligible | antagonistic activity | functions as agonist | negligible toxicity |  | 
C[C@](N)(CS(=O)(=O)c1ccc(F)cc1)C(=O)Nc1ccc(C#N)c(C(F)(F)F)c1 [(R)-23, (R)-2-amino-N-(4-cyano-3-(trifluoromethyl)phenyl)-3-(4-fluorophenylsulfonyl)-2-methyl propanamide] |  |  |  |  |  |  |  | 10.6 |  | negligible |  |  | negligible toxicity | n.r. | 
C[C@](O)(CS(=O)(=O)c1ccc(F)cc1)C(=O)Nc1ccc(C#N)c(C(F)(F)F)c1 [(R)-Bicalutamide, reference compound] |  |  |  |  |  | 2.1 | 1.0 |  |  |  |  |  |  | n.r. | 1.8
CC(C)(C)S(=O)(=O)N[C@](C)(CS(=O)(=O)c1ccc(F)cc1)C(=O)Nc1ccc(C#N)c(C(F)(F)F)c1 [(S)-22] | 19.8 | cytocidal activity |  | significant reduction in their cytotoxic proprieties | significant reduction in their cytotoxic proprieties | 6.2 | 0.0 | 7 |  |  |  |  |  |  | 
Cc1ccc(S(=O)(=O)N[C@](C)(CS(=O)(=O)c2ccc(F)cc2)C(=O)Nc2ccc(C#N)c(C(F)(F)F)c2)cc1 [(S)-26] | 18.3 |  |  | significant reduction in their cytotoxic proprieties | significant reduction in their cytotoxic proprieties | 77.5 | 91.6 | 6.3 |  |  |  |  |  |  | 
